In ChEMBL document CHEMBL1142769, “A preliminary study of the metabolic stability of a series of benzoxazinone derivatives as potent neuropeptide Y5 antagonists” (Bioorg Med Chem Lett, 2005):

What was measured:
[1] = Half life period after 1 hour in Rat liver microsomes at 37 degree C an incubation concentration of 10 uM
[2] = Half life period after 1 hour in human liver microsomes at 37 degree C an incubation concentration of 10 uM
[3] = Inhibitory concentration required for Metabolic stability after 1 hour at an incubation concentration of 10 uM; format: ADME
[4] = Metabolic stability after 1 hour in Rat liver microsomes at 37 degree C an incubation concentration of 10 uM
[5] = Metabolic stability after 1 hour in human liver microsomes at 37 degree C an incubation concentration of 10 uM

Row | SMILES | half-life at 1 h, 10 µM ([1]; liver microsomes) [min] | half-life at 1 h, 10 µM ([2]; liver microsomes) [min] | IC50 [3] [nM] | half-life at 1 h, 10 µM ([1]; microsomes) [min] | half-life at 1 h, 10 µM ([2]; microsomes) [min] | remaining at 1 h, 10 µM [4] [%] | remaining at 1 h, 10 µM [5] [%]
1 | O=C(CN1CCC(N2C(=O)OCc3c(F)cccc32)CC1)Nc1ccc2[nH]c3ccccc3c2c1 | 19.3 | 95 | 461 | – | – | – | –
2 | O=C(CN1CCC(N2C(=O)OCc3ccc(Cl)cc32)CC1)Nc1ccc2sc3ccccc3c2c1 | – | – | 135 | 32.7 | 28.4 | 24 | 19.6
